Data from patent US9440982B2 (Eolas Therapeutics, Inc., priority 2012, dated 2016).

The compounds below were run against T1, OX1 (Homo sapiens, UniProt O43613) (assay: Orexin receptor cell-based functional assay, [Ca2+]i by FLIPR, CHO-OX1 cells). Conditions: CHO-OX1 cells, [Ca2+]i by FLIPR, antagonist dose-range 0.1 nM-10 μM, EC90 of OXA; read-out: OX1.
T1 construct: expressed in transfected cells; host or cells: CHO (CHO-OX1, kept under selection antibiotic)
T1 sequence (O43613 1-425): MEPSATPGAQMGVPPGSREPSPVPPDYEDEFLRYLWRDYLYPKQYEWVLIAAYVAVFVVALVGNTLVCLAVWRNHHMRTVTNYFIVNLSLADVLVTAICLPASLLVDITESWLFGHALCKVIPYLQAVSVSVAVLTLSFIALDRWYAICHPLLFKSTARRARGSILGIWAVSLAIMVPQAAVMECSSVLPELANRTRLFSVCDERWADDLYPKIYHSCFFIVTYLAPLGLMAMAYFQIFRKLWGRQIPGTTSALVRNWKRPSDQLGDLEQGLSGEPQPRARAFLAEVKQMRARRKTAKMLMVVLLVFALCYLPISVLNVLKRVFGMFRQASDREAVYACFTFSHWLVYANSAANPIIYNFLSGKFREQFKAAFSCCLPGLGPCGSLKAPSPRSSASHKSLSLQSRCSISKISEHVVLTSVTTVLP
Procedure, shortened: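 Antagonist mode FLIPR calcium read in CHO-OX1 and CHO-OX2 lines. Test compounds, dosed 0.1 nM-10 μM, preincubated 30 min after 37° C dye loading with 2.5 mM probenecid (calcium4 for 30 min or calcium6 for 2 h).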
With Cc1ccc(NC[C@@H]2[C@H](C)CCCN2C(=O)c2cc(C)ccc2-c2cnn(C)c2)nc1 [Example A49, ((2S,3R)-3-Methyl-2-(((5-methylpyridin-2-yl)amino)methyl)piperidin-1-yl)(5-methyl-2-(1-methyl-1H-pyrazol-4-yl)phenyl)methanone] the IC50 was 500 nM. C[C@@H]1CCCN(C(=O)c2nccc3ccccc23)[C@@H]1CNc1ncc(Cl)cn1 [Example A225, ((2S,3R)-2-(((5-Chloropyrimidin-2-yl)amino)methyl)-3-methylpiperidin-1-yl)(isoquinolin-1-yl)methanone] was tested, and the IC50 was 340 nM. Compound Cc1ccc(-n2nccn2)c(C(=O)N2CCC[C@@H](C)[C@H]2CNc2nc3ccccc3o2)c1 [Example A180, ((2S,3R)-2-((Benzo[d]oxazol-2-ylamino)methyl)-3-methylpiperidin-1-yl)(5-methyl-2-(2H-1,2,3-triazol-2-yl)phenyl)methanone] has an IC50 of 4 nM. Work on COc1c(F)cccc1C(=O)N1CCC[C@@H](C)[C@H]1CNc1ccc(C(F)(F)F)cn1 [Example A75, (3-Fluoro-2-methoxyphenyl)((2S,3R)-3-methyl-2-(((5-(trifluoromethyl)pyridin-2-yl)amino)methyl)piperidin-1-yl)methanone] yielded an IC50 of 1300 nM. Work on Cc1ccc(-n2nccn2)c(C(=O)N2CC3CCCC3C2CNc2ccc(C(F)(F)F)cn2)c1 (centres unmarked) [Example A69, (5-Methyl-2-(2H-1,2,3-triazol-2-yl)phenyl)(1-(((5-(trifluoromethyl)pyridin-2-yl)amino)methyl)hexahydrocyclopenta[c]pyrrol-2(1H)-yl)methanone] yielded an IC50 of 21 nM. For Cc1c(F)ccc(-n2nccn2)c1C(=O)N1CCC[C@@H](C)[C@H]1CNc1ccc(C(F)(F)F)cn1 [Example A384, (3-Fluoro-2-methyl-6-(2H-1,2,3-triazol-2-yl)phenyl)((2S,3R)-3-methyl-2-(((5-(trifluoromethyl)pyridin-2-yl)amino)methyl)piperidin-1-yl)methanone], the IC50 was 19 nM. For Cc1nc(C(=O)N2CCCC3CN(c4nc5ccc(Cl)cc5o4)CC32)c(-c2ccc(F)cc2)s1 (centres unmarked) [Example A76, (6-(6-Chlorobenzo[d]oxazol-2-yl)octahydro-1H-pyrrolo[3,4-b]pyridin-1-yl)(5-(4-fluorophenyl)-2-methylthiazol-4-yl)methanone], the IC50 was > 1000 nM.

Same assay, conditions: Table 2; CHO-OX1 cells, EC90 of OXA; read-out: IC50 Bioactivity OX1
O=C(NCC1CCC(F)CN1C(=O)c1ccccc1-c1ccccc1)c1cccc2cccnc12 (single isomer, unassigned) [Example 38, N-((1-(Biphenylcarbonyl)-5-fluoropiperidin-2-yl)methyl)quinoline-8-carboxamide] gave an IC50 of 4 nM. For Cc1nc(C(=O)N2CCC[C@@H](C)[C@H]2CNC(=O)c2cccc3occc23)c(-c2ccc(F)cc2)s1 (racemic) [Example 63, rac-cis-N-((1-(5-(4-Fluorophenyl)-2-methylthiazole-4-carbonyl)-3-methylpiperidin-2-yl)methyl)benzofuran-4-carboxamide], the IC50 was 2 nM. C[C@@H]1CCCN(C(=O)c2ccccc2OC(F)(F)F)[C@@H]1CNc1ncc(Cl)cn1 (racemic) [Example 122, rac-cis-(2-(((5-Chloropyrimidin-2-yl)amino)methyl)-3-methylpiperidin-1-yl)(2-(trifluoromethoxy)phenyl)methanone] showed an IC50 of 3500 nM. With Cc1nc(-c2ccccc2)c(C(=O)N2C[C@@H]3CCCC[C@@H]3[C@H]2CNC(=O)c2cccc3cccnc23)s1 (racemic) [Example 64, N-(((1S,3aR,7aS)-2-(2-Methyl-4-phenylthiazole-5-carbonyl)octahydro-1H-isoindol-1-yl)methyl)quinoline-8-carboxamide] the IC50 was 3000 nM. CNC1CCC(CNC(=O)c2cccc3cccnc23)N(C(=O)c2ccccc2-c2ccccc2)C1 (racemic) [Example 49, N-((1-(Biphenylcarbonyl)-5-(methylamino)piperidin-2-yl)methyl)quinoline-8-carboxamide] was tested, and the IC50 was 25 nM. In the case of Cc1nc(C(=O)N2CCC[C@@H](C)[C@H]2CNc2nc3ccccc3s2)c(-c2ccc(F)cc2)s1 (racemic) [Example 72, rac-cis-(2-((Benzo[d]thiazol-2-ylamino)methyl)-3-methylpiperidin-1-yl)(5-(4-fluorophenyl)-2-methylthiazol-4-yl)methanone], the IC50 is reported as 6 nM. Cc1nc(C(=O)N2CCC[C@H](C)[C@H]2CNc2ncc(Cl)cn2)c(-c2ccc(F)cc2)s1 (racemic) [Example 96, rac-trans-(2-(((5-Chloropyrimidin-2-yl)amino)methyl)-3-methylpiperidin-1-yl)(5-(4-fluorophenyl)-2-methylthiazol-4-yl)methanone] gave an IC50 of 18 nM. Cc1nc(-c2ccccc2)c(C(=O)N2CC3CCCCC3C2CNC(=O)c2cccc3cccnc23)s1 (single isomer, unassigned) [Example 65] was tested, and the IC50 was > 2000 nM. With Cc1nc(C(=O)N2CCC[C@@H](C)[C@H]2CNc2ncccc2C(F)(F)F)c(-c2ccc(F)cc2)s1 (racemic) [Example 22, rac-cis-(5-(4-Fluorophenyl)-2-methylthiazol-4-yl)(3-methyl-2-(((3-(trifluoromethyl)pyridin-2-yl)amino)methyl)piperidin-1-yl)methanone] the IC50 was 82 nM. In the case of Cc1nc(C(=O)N2C[C@H]3CCC[C@H]3C2COc2nc3ccccc3o2)c(-c2ccc(F)cc2)s1 (mixture of isomers) [Example 102, (1-((Benzo[d]oxazol-2-yloxy)methyl)hexahydrocyclopenta[c]pyrrol-2(1H)-yl)(5-(4-fluorophenyl)-2-methylthiazol-4-yl)methanone], the IC50 is reported as > 1000 nM. With Cc1nc(-c2ccccc2)c(C(=O)N2C(C)CCCC2CNC(=O)c2cccc3cccnc23)s1 (racemic) [Example 29, rac-N-((6-Methyl-1-(2-methyl-4-phenylthiazole-5-carbonyl)piperidin-2-yl)methyl)quinoline-8-carboxamide] the IC50 was 200 nM. Work on Cc1nc(-c2ccccc2)c(C(=O)N2CC[C@@H](O)C[C@H]2CNC(=O)c2cccc3cccnc23)s1 [Example 134, N-(((2S,4R)-4-Hydroxy-1-(2-methyl-4-phenylthiazole-5-carbonyl)piperidin-2-yl)methyl)quinoline-8-carboxamide] yielded an IC50 of 5 nM. O=C1C[C@@H](CNC(=O)c2cccc3cccnc23)N(C(=O)c2ccccc2-c2ccccc2)C1 [Example 6, (S)—N-((1-(Biphenylcarbonyl)-4-oxopyrrolidin-2-yl)methyl)quinoline-8-carboxamide] showed an IC50 of 30 nM. With Cc1nc(C(=O)N2CC(O)CCC2CNC(=O)c2cccc3cccnc23)c(-c2cccc(F)c2)s1 (racemic) [Example 51, N-((1-(5-(3-Fluorophenyl)-2-methylthiazole-4-carbonyl)-5-hydroxypiperidin-2-yl)methyl)quinoline-8-carboxamide] the IC50 was 10 nM. Cc1nc(C(=O)N2CC(F)(F)CCC2CNC(=O)c2cccc3cccnc23)c(-c2cccc(F)c2)s1 (racemic) [Example 52, rac-N-((5,5-Difluoro-1-(5-(3-fluorophenyl)-2-methylthiazole-4-carbonyl)piperidin-2-yl)methyl)quinoline-8-carboxamide] was tested, and the IC50 was 1 nM. With CN(C)C1CCC(CNC(=O)c2cccc3cccnc23)N(C(=O)c2ccccc2-c2ccccc2)C1 (racemic) [Example 41, N-((1-(Biphenylcarbonyl)-5-(dimethylamino)piperidin-2-yl)methyl)quinoline-8-carboxamide] the IC50 was 1500 nM. Work on Cc1nc(-c2ccccc2)c(C(=O)N2CCC(F)(F)[C@H]2CNC(=O)c2cccc3cccnc23)s1 [Example 133, (R)—N-((3,3-Difluoro-1-(2-methyl-4-phenylthiazole-5-carbonyl)pyrrolidin-2-yl)methyl)quinoline-8-carboxamide] yielded an IC50 of 12 nM. CO[C@@H]1CCCN(C(=O)c2nc(C)sc2-c2ccc(F)cc2)[C@@H]1CNc1ncc(Cl)cn1 (racemic) [Example 93, rac-cis-(2-(((5-Chloropyrimidin-2-yl)amino)methyl)-3-methoxypiperidin-1-yl)(5-(4-fluorophenyl)-2-methylthiazol-4-yl)methanone] gave an IC50 of 100 nM. Cc1nc(C(=O)N2CC(N)CCC2CNC(=O)c2cccc3cccnc23)c(-c2cccc(F)c2)s1 (racemic) [Example 53, N-((5-Amino-1-(5-(3-fluorophenyl)-2-methylthiazole-4-carbonyl)piperidin-2-yl)methyl)quinoline-8-carboxamide] gave an IC50 of 65 nM. COC1CCC(CNC(=O)c2cccc3cccnc23)N(C(=O)c2nc(C)sc2-c2cccc(F)c2)C1 (racemic) [Example 50, N-((1-(5-(3-Fluorophenyl)-2-methylthiazole-4-carbonyl)-5-methoxypiperidin-2-yl)methyl)quinoline-8-carboxamide] gave an IC50 of 7 nM. For Cc1nc(C(=O)N2CC(F)(F)CCC2CNC(=O)c2cccc3cccnc23)c(-c2ccccc2)s1 (racemic) [Example 56, rac-N-((5,5-Difluoro-1-(2-methyl-5-phenylthiazole-4-carbonyl)piperidin-2-yl)methyl)quinoline-8-carboxamide], the IC50 was < 100 nM. In the case of Cc1nc(-c2ccccc2)c(C(=O)N2CC(O)CCC2CNC(=O)c2cccc3cccnc23)s1 (racemic) [Example 33, N-((5-Hydroxy-1-(2-methyl-4-phenylthiazole-5-carbonyl)piperidin-2-yl)methyl)quinoline-8-carboxamide], the IC50 is reported as 20 nM.
